The values below come from patent US20250213735A1, “NEUROPEPTIDE Y1 RECEPTOR (NPY1R) TARGETED THERAPEUTICS AND USES THEREOF” (Radionetics Oncology, Inc., priority 2023, published 2025).

One experiment deals with hNPY1R (Homo sapiens (Human), UniProt P25929). Kind of experiment: NPY1R binding assay (SK-N-MC membrane, [125I]-Peptide YY competition).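 Further: bound radioligand separated by filtration over GF/C filter plates and counted, Ki obtained by non-linear regression.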
Chain of hNPY1R (P25929 whole entry): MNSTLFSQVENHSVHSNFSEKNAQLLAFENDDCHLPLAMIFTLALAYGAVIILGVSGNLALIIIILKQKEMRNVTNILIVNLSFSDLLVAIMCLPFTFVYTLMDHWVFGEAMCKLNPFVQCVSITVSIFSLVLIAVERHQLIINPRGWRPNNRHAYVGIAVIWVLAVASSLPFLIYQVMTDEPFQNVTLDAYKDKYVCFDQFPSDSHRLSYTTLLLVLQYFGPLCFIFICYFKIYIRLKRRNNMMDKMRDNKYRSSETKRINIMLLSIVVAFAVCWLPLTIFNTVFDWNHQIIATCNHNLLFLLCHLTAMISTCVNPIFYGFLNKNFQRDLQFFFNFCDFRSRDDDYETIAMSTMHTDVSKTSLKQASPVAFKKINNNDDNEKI
Details: not given
Consider `CCC(=O)NCCNC(=O)/N=C(/N)NCCC[C@@H](NC(=O)[C@H](c1ccc(OCCCNC(=O)CCCCCNC(=O)CN2CCN3CCN4CCN(CC2)CC(=O)[O][Ga]([O]C(=O)C3)[O]C(=O)C4)cc1)N1Cc2ccccc2C1)C(=O)NCc1ccc(O)cc1` [1A-Ga, Gallium (III) 2,2′,2″-(10-(2-((6-((3-(4-((1S,4R,Z)-9-amino-4-((4-hydroxybenzyl)carbamoyl)-1-(isoindolin-2-yl)-2,11,16-trioxo-3,8,10,12,15-pentaazaoctadec-9-en-1-yl)phenoxy)propyl)amino)-6-oxohexyl)amino)-2-oxoethyl)-1,4,7,10-tetraazacyclododecane-1,4,7-triyl)triacetate], for which the Ki is < 0.01 µM.

The same experiment, now with this note: crude SK-N-MC membranes endogenously expressing NPY1R; [125I]-Peptide YY (human) 0.05 nM; 120 min at room temperature; read-out: hNPY1R binding Ki.
Turning to `CCC(=O)NCCNC(=O)/N=C(/N)NCCC[C@@H](NC(=O)[C@@H](c1cccc(NC(=O)CCCNC(=O)CCCCCNC(=O)CN2CCN(CC(=O)O)CCN(CC(=O)O)CCN(CC(=O)O)CC2)c1)N1Cc2ccccc2C1)C(=O)NCc1ccc(O)cc1` [3B, 2,2′,2″-(10-(2-((6-((4-((3-((1R,4R,Z)-9-amino-4-((4-hydroxybenzyl)carbamoyl)-1-(isoindolin-2-yl)-2,11,16-trioxo-3,8,10,12,15-pentaazaoctadec-9-en-1-yl)phenyl)amino)-4-oxobutyl)amino)-6-oxohexyl)amino)-2-oxoethyl)-1,4,7,10-tetraazacyclododecane-1,4,7-triyl)triacetic acid], the Ki is < 0.01 µM.
Consider `N=C(N)NCCC[C@@H](NC(=O)C(c1ccccc1)N1CCC(c2ccccc2)CC1)C(=O)NCc1ccc(O)cc1` (stereo partly drawn) [compound 86, (2R)-5-guanidino-N-(4-hydroxybenzyl)-2-(2-phenyl-2-(4-phenylpiperidin-1-yl)acetamido)pentanamide], for which the Ki fell in the range of 0.1 to 1 µM.
Turning to `CCC(=O)NCCNC(=O)/N=C(/N)NCCC[C@@H](NC(=O)[C@H](c1ccc(OCCCNC(=O)CONC(=O)CCNC(=O)CN2CCN(CC(=O)O)CCN(CC(=O)O)CCN(CC(=O)O)CC2)cc1)N1Cc2ccccc2C1)C(=O)NCc1c(F)cc(O)cc1F` [compound 44, 2,2′,2″-(10-(14-(4-((1S,4R,Z)-9-amino-4-((2,6-difluoro-4-hydroxybenzyl)carbamoyl)-1-(isoindolin-2-yl)-2,11,16-trioxo-3,8,10,12,15-pentaazaoctadec-9-en-1-yl)phenoxy)-2,6,10-trioxo-8-oxa-3,7,11-triazatetradecyl)-1,4,7,10-tetraazacyclododecane-1,4,7-triyl)triacetic acid], the Ki is < 0.01 µM.
With `CC1(C)C2CN([C@@H](C(=O)N[C@H](CCCNC(=N)N)C(=O)NCc3ccc(O)cc3)c3ccccc3)CC21` (stereo partly drawn) [88B, (2R)-2-((2R)-2-(6,6-dimethyl-3-azabicyclo[3.1.0]hexan-3-yl)-2-phenylacetamido)-5-guanidino-N-(4-hydroxybenzyl)pentanamide], the Ki is > 1 µM.
In the case of `CCC(=O)NCCNC(=O)/N=C(/N)NCCC[C@@H](NC(=O)[C@H](c1ccc(OCCCNC(=O)CCN(C)CCNC(=O)CN2CCN(CC(=O)O)CCN(CC(=O)O)CCN(CC(=O)O)CC2)cc1)N1Cc2ccccc2C1)C(=O)NCc1c(F)cc(O)cc1F` [compound 55, 2,2′,2″-(10-(2-((2-((3-((3-(4-((1S,4R,Z)-9-amino-4-((2,6-difluoro-4-hydroxybenzyl)carbamoyl)-1-(isoindolin-2-yl)-2,11,16-trioxo-3,8,10,12,15-pentaazaoctadec-9-en-1-yl)phenoxy)propyl)amino)-3-oxopropyl)(methyl)amino)ethyl)amino)-2-oxoethyl)-1,4,7,10-tetraazacyclododecane-1,4,7-triyl)triacetic acid], the Ki was < 0.01 µM.
On to `CC(C)(C)C1CCN(C(C(=O)N[C@H](CCCNC(=N)N)C(=O)NCc2ccc(O)cc2)c2ccccc2)CC1` (stereo partly drawn) [compound 80, (2R)-2-(2-(4-(tert-butyl)piperidin-1-yl)-2-phenylacetamido)-5-guanidino-N-(4-hydroxybenzyl)pentanamide], for which the Ki fell in the range of 0.01 to 0.1 µM.
The same measure, in the same setting: to `CCC1CCN(C(C(=O)N[C@H](CCCNC(=N)N)C(=O)NCc2ccc(O)cc2)c2ccccc2)CC1` (stereo partly drawn) [compound 79, (2R)-2-(2-(4-ethylpiperidin-1-yl)-2-phenylacetamido)-5-guanidino-N-(4-hydroxybenzyl)pentanamide] belongs 0.01 to 0.1 µM; to `CCC(=O)NCCNC(=O)/N=C(/N)NCCC[C@@H](NC(=O)C(c1cccc(NC(=O)CCCNC(=O)[C@@H](CO)NC(=O)CCNC(=O)CN2CCN(CC(=O)O)CCN(CC(=O)O)CCN(CC(=O)O)CC2)c1)N1Cc2ccccc2C1)C(=O)NCc1c(F)cc(O)cc1F` (single isomer, unassigned) [32A], < 0.01 µM.
On the same count and under the same terms, to `CCC(=O)NCCNC(=O)/N=C(/N)NCCC[C@@H](NC(=O)[C@@H](c1ccc(OCCCN)cc1)N1Cc2ccccc2C1)C(=O)NCc1ccc(O)cc1` [64B] belongs 0.01 to 0.1 µM.
For the molecule `CCC(=O)NCCNC(=O)/N=C(/N)NCCC[C@@H](NC(=O)[C@H](c1cccc(NCCCNC(=O)CCOCCNC(=O)CN2CCN(CC(=O)O)CCN(CC(=O)O)CCN(CC(=O)O)CC2)c1)N1Cc2ccccc2C1)C(=O)NCc1ccc(O)cc1` [compound 20, 2,2′,2″-(10-(2-((2-(3-((3-((3-((1S,4R,Z)-9-amino-4-((4-hydroxybenzyl)carbamoyl)-1-(isoindolin-2-yl)-2,11,16-trioxo-3,8,10,12,15-pentaazaoctadec-9-en-1-yl)phenyl)amino)propyl)amino)-3-oxopropoxy)ethyl)amino)-2-oxoethyl)-1,4,7,10-tetraazacyclododecane-1,4,7-triyl)triacetic acid], the Ki is < 0.01 µM.
The same measure, in the same setting: the figure for `CCC(=O)NCCNC(=O)/N=C(/N)NCCC[C@@H](NC(=O)[C@H](c1ccc(OCCCNC(=O)CCOCCNC(=O)c2ccc(CNC(=O)CN3CCN(CC(=O)O)CCN(CC(=O)O)CCN(CC(=O)O)CC3)cc2)cc1)N1Cc2ccccc2C1)C(=O)NCc1ccc(O)cc1` [compound 17, 2,2′,2″-(10-(2-((4-((2-(3-((3-(4-((1S,4R,Z)-9-amino-4-((4-hydroxybenzyl)carbamoyl)-1-(isoindolin-2-yl)-2,11,16-trioxo-3,8,10,12,15-pentaazaoctadec-9-en-1-yl)phenoxy)propyl)amino)-3-oxopropoxy)ethyl)carbamoyl)benzyl)amino)-2-oxoethyl)-1,4,7,10-tetraazacyclododecane-1,4,7-triyl)triacetic acid] is < 0.01 µM.
Take `CC(C)C1CCN(C(C(=O)N[C@H](CCCNC(=N)N)C(=O)NCc2ccc(O)cc2)c2ccccc2)CC1` (stereo partly drawn) [compound 77, (2R)-5-guanidino-N-(4-hydroxybenzyl)-2-(2-(4-isopropylpiperidin-1-yl)-2-phenylacetamido)pentanamide]: the Ki fell in the range of 0.01 to 0.1 µM.
With `CCC(=O)NCCNC(=O)/N=C(/N)NCCC[C@@H](NC(=O)[C@H](c1ccc(OCCCNC(=O)C[C@H](O)C[C@H](O)CCNC(=O)CN2CCN(CC(=O)O)CCN(CC(=O)O)CCN(CC(=O)O)CC2)cc1)N1Cc2ccccc2C1)C(=O)NCc1c(F)cc(O)cc1F` [compound 6, 2,2′,2″-(10-(2-(((3R,5R)-7-((3-(4-((1S,4R,Z)-9-amino-4-((2,6-difluoro-4-hydroxybenzyl)carbamoyl)-1-(isoindolin-2-yl)-2,11,16-trioxo-3,8,10,12,15-pentaazaoctadec-9-en-1-yl)phenoxy)propyl)amino)-3,5-dihydroxy-7-oxoheptyl)amino)-2-oxoethyl)-1,4,7,10-tetraazacyclododecane-1,4,7-triyl)triacetic acid-2,2,2-trifluoroacetic acid (1/1)], the inhibitory constant (Ki) was < 0.01 µM.
As to `CCC(=O)NCCNC(=O)/N=C(/N)NCCC[C@@H](NC(=O)[C@@H](c1ccc(OCCCNC(=O)CCCCCNC(=O)CN2CCN(CC(=O)O)CCN(CC(=O)O)CCN(CC(=O)O)CC2)cc1)N1Cc2ccccc2C1)C(=O)NCc1ccc(O)cc1` [1B, 2,2′,2″-(10-(2-((6-((3-(4-((1R,4R,Z)-9-amino-4-((4-hydroxybenzyl)carbamoyl)-1-(isoindolin-2-yl)-2,11,16-trioxo-3,8,10,12,15-pentaazaoctadec-9-en-1-yl)phenoxy)propyl)-amino)-6-oxohexyl)amino)-2-oxoethyl)-1,4,7,10-tetraazacyclododecane-1,4,7-triyl)triacetic acid-2,2,2-trifluoroacetic acid (1/1)], the Ki is 0.1 to 1 µM.
Take `CCC(=O)NCCNC(=O)/N=C(/N)NCCC[C@@H](NC(=O)[C@H](c1ccccc1)N1Cc2ccccc2C1)C(=O)NCc1c(F)cc(O)cc1F` [61A, (R)—N-(2,6-difluoro-4-hydroxybenzyl)-2-((S)-2-(isoindolin-2-yl)-2-phenylacetamido)-5-((Z)-2-((2-propionamidoethyl)carbamoyl)guanidino)pentanamide]: the Ki was < 0.01 µM.
Take `CCC(=O)NCCNC(=O)/N=C(/N)NCCC[C@@H](NC(=O)[C@H](c1ccc(OCCNC(=O)CCCCCNC(=O)CN2CCN(CC(=O)O)CCN(CC(=O)O)CCN(CC(=O)O)CC2)cc1)N1Cc2ccccc2C1)C(=O)NCc1ccc(O)cc1` [compound 58, 2,2′,2″-(10-(2-((6-((2-(4-((1S,4R,Z)-9-amino-4-((4-hydroxybenzyl)carbamoyl)-1-(isoindolin-2-yl)-2,11,16-trioxo-3,8,10,12,15-pentaazaoctadec-9-en-1-yl)phenoxy)ethyl)amino)-6-oxohexyl)amino)-2-oxoethyl)-1,4,7,10-tetraazacyclododecane-1,4,7-triyl)triacetic acid]: the inhibition constant Ki was < 0.01 µM.
On to `CCC(=O)NCCNC(=O)/N=C(/N)NCCC[C@@H](NC(=O)[C@H](c1ccc(OCCCNC(=O)CN2CCN(CC(=O)O)CCN(CC(=O)O)CCN(CC(=O)O)CC2)cc1)N1Cc2ccccc2C1)C(=O)NCc1ccc(O)cc1` [compound 59, 2,2′,2″-(10-(2-((3-(4-((1S,4R,Z)-9-amino-4-((4-hydroxybenzyl)carbamoyl)-1-(isoindolin-2-yl)-2,11,16-trioxo-3,8,10,12,15-pentaazaoctadec-9-en-1-yl)phenoxy)propyl)amino)-2-oxoethyl)-1,4,7,10-tetraazacyclododecane-1,4,7-triyl)triacetic acid], for which the Ki was < 0.01 µM.
